Data published in US10138245B2, “Fused triazole derivatives as phosphodiesterase 10A inhibitors” (Celon Pharma S.A., priority 2014, dated 2018).

Columns and labels:
[1] = target: Recombinant human phosphodiesterase 10A (PDE10A) (Homo sapiens (Human), UniProt Q9Y233); assay: Assay of phosphodiesterase 10 inhibition in vitro (PDE-Glo luminescent method); type: biochemical; conditions: averaged IC50 values, read-out: hPDE10A1 IC50
Method: 1. Assay of Phosphodiesterase 10 Inhibition In Vitro
Recombinant human phosphodiesterase 10A (PDE10A) purified to homogeneity from Sf9 cells overexpressing PDE10A gene (GenBank/EMBL accession number: NM_001130690) was used for inhibition tests.
Inhibitory activity of the compounds towards PDE10A was tested using PDE-Glo (Promega Corporation, Madison, USA) luminescent method on 96-well plates. Test was performed for 8 concentrations of the compounds. Test compounds were dissolved in 100% DMSO and resulted solutions were diluted 5× in concentrated PDE-Glo Reaction Buffer. Eight concentrations of each tested compound were obtained by subsequent dilution. 5 μl of obtained solutions were added into the wells of 96-well plate. Next, 7.5 μl of a solution containing […] enzyme diluted in 1× concentrated PDE-Glo Reaction Buffer were added into the well to obtain the final amount of 2-10 ng (depending on the activity of the enzyme batch used in the study). In order to facilitate interaction between compounds and the enzyme, plates were incubated for 1 minute at room temperature and then 9 minutes at 4° C. Reaction was initiated by addition of 12.5 μl of 2 μM cAMP solution into the well and subsequently plate was incubated at 30° C.
After 40 minutes reaction was stopped by addition of 12.5 μl of PDE-Glo Termination Buffer with high concentration of a known PDE10 inhibitor. Plate content was stirred with orbital shaker at 500 RPMs for 10 minutes and then in the next step 12.5 μl of freshly prepared PDE-Glo Detection Solution were added into the well.
Plate was incubated for 20 minutes at room temperature before 50 μl of Kinase Glo reagent (Promega Corporation, Madison, USA) was applied into the wells and incubation at room temperature was continued for the next 10 minutes. After incubation, luminescence intensity in wells was measured with the Victor Light (Perkin Elmer Inc.) luminometer.
Percent of PDE10A inhibition by tested compounds was determined based on luminescence intensity measurements in wells containing test compounds and in control wells. Results were then fitted using a four-parameter logistic fit in GraphPad Prism 5.03 software (GraphPad Software Inc.). Negative control wells contained all above mentioned reagents except test compounds and positive control wells contained all above mentioned reagents except test compounds and the PDE10A enzyme. Each chemical compound was assayed in at least two independent runs (2×96-well plate in duplicate) with at least 3 wells of each of the controls.

[2] = Metabolic stability in rat liver microsomal fraction; type: in vitro ADME; conditions: liver microsomes, 37° C., phase I cofactors; for microsomal CLint: read-out: Cl(int)
Method: Tested compounds were incubated in triplicates with rat liver microsomal fraction at 37° C. in the presence of metabolic phase I cofactors (NADP, G6P, G6P dehydrogenase, MgCl2) necessary for metabolic transformations. Concentration of a non-metabolized tested compound in the reaction mixture was measured using LC/MS method at 4 time points: after 0, 20, 40 and 60 min of incubation. The AUC of compounds at those time points were compared with AUC at point 0 to obtain % loss of parental compound. The obtained data were used for calculation of internal clearance (Cl(int)) and half-life (T½). The metabolic activity of microsomes was assessed by measuring the stability of two standards with low and high metabolic stability, propranolol and donepezil, respectively.

Chain of Recombinant human phosphodiesterase 10A (PDE10A) (Q9Y233 267-1055): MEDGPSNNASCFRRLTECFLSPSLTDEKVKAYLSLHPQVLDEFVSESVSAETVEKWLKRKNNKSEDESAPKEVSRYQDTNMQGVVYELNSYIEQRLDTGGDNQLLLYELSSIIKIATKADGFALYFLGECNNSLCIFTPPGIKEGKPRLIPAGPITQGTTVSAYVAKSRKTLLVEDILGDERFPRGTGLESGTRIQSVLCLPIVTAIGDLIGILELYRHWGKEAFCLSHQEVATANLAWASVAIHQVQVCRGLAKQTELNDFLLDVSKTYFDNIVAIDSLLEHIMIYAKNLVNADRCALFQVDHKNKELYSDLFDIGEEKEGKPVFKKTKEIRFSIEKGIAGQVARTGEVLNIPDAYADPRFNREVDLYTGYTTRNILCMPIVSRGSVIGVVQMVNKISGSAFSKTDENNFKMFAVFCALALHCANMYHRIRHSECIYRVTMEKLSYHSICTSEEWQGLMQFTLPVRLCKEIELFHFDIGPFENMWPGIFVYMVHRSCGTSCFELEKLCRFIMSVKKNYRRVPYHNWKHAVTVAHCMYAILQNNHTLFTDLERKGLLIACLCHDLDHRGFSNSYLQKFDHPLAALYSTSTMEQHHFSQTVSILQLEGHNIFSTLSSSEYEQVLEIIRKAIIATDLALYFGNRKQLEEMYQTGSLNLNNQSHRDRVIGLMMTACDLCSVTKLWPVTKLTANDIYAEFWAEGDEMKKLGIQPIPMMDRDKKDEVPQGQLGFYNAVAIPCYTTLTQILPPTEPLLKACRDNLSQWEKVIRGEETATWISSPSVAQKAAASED

| IC50 [1] [nM] | half-life [2] [h] | microsomal CLint [2] [µL/min/mg] | Structure (SMILES) |
| --- | --- | --- | --- |
| 794 |  |  | Cc1cc(C)n2nc(-c3ccc4c(c3)nc(-c3ccccc3)n4C)nc2n1 [Example 48A, 5,7-Dimethyl-2-(1-methyl-2-phenyl-1H-benzo[d]imidazol-5-yl)-[1,2,4]-triazolo[1,5-a]pyrimidine] |
| 54 |  |  | Cc1ncc(C)n2nc(-c3ccc4[nH]c(-c5ccc(F)cc5)nc4c3)nc12 [Example 7, 2-[2-(4-Fluorophenyl)-1H-benzimidazol-5-yl]-5,8-dimethyl[1,2,4]triazolo[1,5-a]pyrazine] |
| 96 |  |  | Cc1cc(C)n2nc(-c3ccn4cc(-c5ccccc5)nc4n3)nc2n1 [Example 56, 5,7-Dimethyl-2-(2-phenylimidazo[1,2-a]pyrimidin-7-yl)[1,2,4]triazolo-[1,5-a]pyrimidine] |
| 84 |  |  | Cc1ncc(C)n2nc(-c3ccc4[nH]c(-c5nccs5)nc4c3)nc12 [Example 8, 5,8-Dimethyl-2-[2-(1,3-thiazol-2-yl)-1H-benzimidazol-5-yl][1,2,4]triazolo[1,5-a]pyrazine] |
| 172 |  |  | Cc1ncc(C)n2nc(-c3ccc4[nH]c(-c5cccc(F)c5)nc4c3)nc12 [Example 6, 2-[2-(3-Fluorophenyl)-1H-benzimidazol-5-yl]-5,8-dimethyl[1,2,4]triazolo[1,5-a]pyrazine] |
|  | 0.559 | 68.9 | Cc1ncc(C)n2nc(-c3ccn4cc(-c5ccccc5)nc4c3)nc12 [Ex. 1 of WO2013003298, reference compound] |
| 413 |  |  | Cc1cc(C)n2nc(-c3ccc4nc(-c5ccccc5)n(C)c4c3)nc2n1 [Example 48B, 5,7-Dimethyl-2-(1-methyl-2-phenyl-1H-benzo[d]imidazol-6-yl)-[1,2,4]-triazolo[1,5-a]pyrimidine] |
| 953 |  |  | Cc1cc(C)n2nc(-c3ccc4[nH]c(-c5ccncc5)nc4c3)nc2n1 [Example 5, 5,7-Dimethyl-2-[2-(pyridin-4-yl)-1H-benzimidazol-5-yl][1,2,4]triazolo[1,5-a]pyrimidine] |
| 27 | 1.05 | 36.8 | Cc1ncc(C)n2nc(-c3ccc4[nH]c(-c5ccccc5)nc4c3)nc12 [Example 4, 5,8-Dimethyl-2-(2-phenyl-1H-benzimidazol-5-yl)[1,2,4]triazolo[1,5-a]pyrazine] |
| 19.5 |  |  | COc1ccccc1-c1nc2cc(-c3nc4c(C)ncc(C)n4n3)ccc2[nH]1 [Example 41, 2-[2-(2-Methoxyphenyl)-1H-benzimidazol-5-yl]-5,8-dimethyl[1,2,4]triazolo[1,5-a]-pyrazine] |
| 279 |  |  | Cc1cc(C)n2nc(-c3ccc4[nH]c(-c5ccccn5)nc4c3)nc2n1 [Example 3, 5,7-Dimethyl-2-[2-(pyridin-2-yl)-1H-benzo[d]imidazol-5-yl]-[1,2,4]triazolo[1,5-a]pyrimidine] |
| 47 |  |  | Cc1cc(C)n2nc(-c3ccc4[nH]c(-c5ccccc5)nc4c3)nc2n1 [Example 1, 5,7-Dimethyl-2-(2-phenyl-1H-benzo[d]imidazol-5-yl)-[1,2,4]triazolo-[1,5-a]pyrimidine] |
| 63 |  |  | Cc1ncc(C)n2nc(-c3ccc4[nH]c(-c5ccccn5)nc4c3)nc12 [Example 40, 5,8-Dimethyl-2-[2-(pyridin-2-yl)-1H-benzimidazol-5-yl][1,2,4]triazolo[1,5-a]pyrazine] |
| 37 |  |  | Cc1ncc(C)n2nc(-c3ccc4[nH]c(-c5ccccc5F)nc4c3)nc12 [Example 2, 2-[2-(2-Fluorophenyl)-1H-benzo[d]imidazol-5-yl]-5,8-dimethyl-[1,2,4]-triazolo[1,5-a]pyrazine] |

| Structure (SMILES) | IC50 [1] [nM] | half-life [2] [h] | microsomal CLint [2] [µL/min/mg] |
| --- | --- | --- | --- |
| Cc1ncc(C)n2nc(-c3ccn4cc(-c5ccccc5)nc4n3)nc12 [Example 57, 5,8-Dimethyl-2-(2-phenylimidazo[1,2-a]pyrimidin-7-yl)[1,2,4]triazolo[1,5-a]pyrazine] | 35.7 | 1.1 | 34.9 |
